≈ marks a conversion by molar mass, not a printed value.
What was measured:
[1] = tested on: glioblastoma U87; design: method as in PMID 28669347; conditions: cited from earlier work
[2] = tested on: cervical cancer HeLa; design: method as in PMID 28669347; conditions: cited from earlier work
[3] = tested on: HeLa, MDA-MB-231, and MCF-7; design: method as in PMID 32171988; conditions: in words; cited from earlier work
[4] = tested on: patient P3 cell lines (3D model, patient-derived ovarian cancer); design: method as in PMID 27585955; conditions: 3D spheroid model; cited from earlier work
[5] = tested on: SK-OV-3 (3D model); design: method as in PMID 27585955; conditions: 3D spheroid model; cited from earlier work
[6] = tested on: ovarian cancer 2D culture; design: method as in PMID 27585955; conditions: 2D culture and liposomal drug delivery system; cited from earlier work
[7] = tested on: Jurkat cells; assay: Fluorescent microscopy of Jurkat cells (Hoechst 33342/EtBr staining); assay type: cell-based, human; conditions: 0.5 µM, 24 h
Experimental: Jurkat cells were seeded in 24-well plates at a density of 250,000 cells/mL and incubated overnight prior to treatment. Cells were then treated for 24 h with compounds 4, 7, and 8 (0.5 µM) or doxorubicin (0.5 µM) as a positive control. Following treatment, cells were stained with Hoechst 33342 (0.2–0.5 µg/mL; Sigma-Aldrich, USA) and ethidium bromide (EtBr, 1 µg/mL). Fluorescence imaging was performed using a LIM-400 microscope (LABEX INSTRUMENT LIMITED, Ningbo, China) equipped with an MTR3CCD camera. Images were captured and analysed using ImageView software (version 4.11.21522.20221011).

[8] = tested on: salmon sperm DNA; assay: DNA intercalation assay (methyl green displacement method); assay type: binding; conditions: 1 and 10 μM; for percentage of methyl green dye replaced from its complex with DNA: range over both doses; for affinity for DNA: methyl green displacement, in words
Experimental: To investigate the potential mechanisms of cell death induced by the studied derivative, we evaluated apoptosis using the fluorescence microscopy of cells stained with Hoechst-33342 and Ethidium Bromide (EtBr), as well as spectroscopic and DNA/methyl green displacement assays. Methyl green is a cationic dye that binds preferentially to the phosphate backbone of DNA (primarily in the major groove). If a compound (an intercalator or groove-binding agent) is added, it can compete with methyl green for binding to DNA. The higher the percentage of substituted methyl green, the stronger the compound interacts with DNA. Intercalation is the key feature of clinically used antitumor drugs, e.g., doxorubicin (DOX). DOX displaced 41.62–45.52% of methyl green from its complex with DNA (Figure 10). Another intercalator, EtBr, replaced 42.12–47.35% of methyl green from its complex with DNA.
A 485 μL aliquot of salmon sperm DNA (50 μg/mL, Sigma-Aldrich, Burlington, MA, USA) was incubated with 15 μL of methyl green solution (1 mg/mL, Sigma-Aldrich, Burlington, MA, USA) at 37 °C for 1 h. Subsequently, 500 μL of the test compounds, doxorubicin, or ethidium bromide (each at final concentrations of 1 μM and 10 μM) was added to the preformed methyl green–DNA complex. The samples were further incubated at 37 °C for 2 h in the dark. Absorbance was then recorded at 630 nm. GraphPad Prism (version 9.1.1, GraphPad Software, Boston, MA, USA) was used for the results analysis. Experiments were conducted in triplicate. Doxorubicin and ethidium bromide were purchased from Sigma-Aldrich, USA.

[9] = tested on: pancreas BXPC-3; design: method as in PMID 15943482; conditions: cited from earlier work
[10] = tested on: Jurkat human acute T-cell leukaemia; assay: MTT cell viability assay, Jurkat; assay type: cell-based; conditions: MTT test, 72 h of action, read-out: IC50, Tumour Cell Lines, Jurkat Human Acute T-Cell Leukaemia
Experimental: (§1) The MTT cell viability assay was performed according to a previously reported protocol. Briefly, adherent cells were seeded at a density of 5000 cells per 100 µL, and suspension cells at 25,000 cells per 100 µL, in 96-well plates and incubated overnight. Subsequently, test compounds were added in 100 µL of culture medium, followed by incubation for 72 h. After treatment, 20 µL of MTT solution (5 mg/mL, Sigma-Aldrich, Burlington, MA, USA) was added to each well. The resulting formazan crystals were dissolved in DMSO (Sigma-Aldrich, Burlington, MA, USA), and absorbance was recorded using a BioTek ELx800 Absorbance Reader (BioTek Instruments, Inc., Vinooski, VT, USA). IC50 values were calculated by nonlinear regression analysis using GraphPad Prism (version 9.1.1, GraphPad Software, Boston, MA, USA). Experiments were conducted in triplicate. Human leukemia Jurkat T-cells, human glioblastoma U251 cells were kindly provided by Collection at the Institute of Molecular Biology and Genetics, National Academy of Sciences of Ukraine (Kyiv, Ukraine). Murine macrophages of J774.2 line were a generous gift from Prof. Sir John Vane (William Harvey Research Institute, London, UK) provided via Prof. Janusz Marcinkiewicz (Jagiellonian University Medical College, Krakow, Poland). Human colorectal adenocarcinoma cell line HT-29 was kindly provided by Prof. Anna Bielawska (Department of Biotechnology, Faculty of Pharmacy, Medical University of Bialystok, Poland). Murine BALB/3T3 fibroblasts was obtained from the Cell Collection of the R.E. Kavetsky Institute of Experimental Pathology, Oncology and Radiobiology (Kyiv, Ukraine).

[11] = tested on: J744.2 mice macrophage-like cells; assay: MTT cell viability assay, J744.2; assay type: cell-based; conditions: Mus musculus; MTT test, 72 h of action; read-out: IC50, Pseudo-Normal Cell Lines, J744.2 Mice Macrophage-Like Cells
Experimental: as §1

[12] = tested on: lung-NSC NCI-H460; design: method as in PMID 15943482; conditions: cited from earlier work
[13] = tested on: Balb-3T3 mice fibroblast; assay: MTT cell viability assay, Balb-3T3; assay type: cell-based; conditions: Mus musculus, MTT test, 72 h of action, read-out: IC50, Pseudo-Normal Cell Lines, Balb-3T3 Mice Fibroblast
Experimental: as §1

[14] = tested on: neuroblast SK-N-SH; design: method as in PMID 15943482; conditions: cited from earlier work
[15] = tested on: HT-29 human colorectal carcinoma; assay: MTT cell viability assay, HT-29; assay type: cell-based; conditions: MTT test, 72 h of action, read-out: IC50, Tumour Cell Lines, HT-29 Human Colorectal Carcinoma
Experimental: as §1

[16] = tested on: U251 human malignant glioblastoma; assay: MTT cell viability assay, U251; assay type: cell-based; conditions: U-251, MTT test, 72 h of action, read-out: IC50, Tumour Cell Lines, U251 Human Malignant Glioblastoma
Experimental: as §1

[17] = tested on: prostate DU-145; design: method as in PMID 15943482; conditions: cited from earlier work
[18] = tested on: Staphylococcus aureus 209P; design: method as in PMID 37298957; conditions: in words; cited from earlier work
[19] = tested on: P450 CYP1B1 isoform; design: method as in PMID 28632937; conditions: read-out: IC50 against the P450 CYP1B1 isoform; cited from earlier work
[20] = tested on: human lung cancer cells (A549); design: method as in PMID 15464834, doi:10.1177/1934578X0700200419; conditions: read-out: IC50 in cultured human lung cancer cells (A549); cited from earlier work
[21] = tested on: Mucor indicus; design: method as in PMID 30790326; conditions: cited from earlier work

Molecule	IC50 [10] [µM]	IC50 [11] [µM]	IC50 [13] [µM]	IC50 [15] [µM]	IC50 [16] [µM]	further results
COc1ccc(/C=C/c2ccc([N+](=O)[O-])cc2[N+](=O)[O-])c(O)c1 [VIII, 2-hydroxy-4-methoxy-2′,4′-ditro-trans-stilbene]	–	–	–	–	–	IC50 [1]: 55.8 µM; IC50 [2]: 6.97 µM
CCCCCCCCCCCCCCCC[N+](C)(CCCCCCCCCCCCCCCC)CNC(=O)c1cc(OC)c(OC)c(OC)c1/C=C/c1cc(OC)c(OC)c(OC)c1 [VII, quaternary amine derivative chloride of 4,5,6,3′,4′,5′-hexamethoxy-trans-stilbene]	–	–	–	–	–	antitumor activity against cancer lines compared with resveratrol and tamoxifen [3]: higher antitumor activity
3-hydroxy-3,4,5,4′-tetramethoxy-trans-stilbene [DMU-214]	–	–	–	–	–	IC50 [4]: 0.5 to 22.9 µM; IC50 [5]: 2.9 to 14.1 µM; IC50 [6]: 0.022 µM
COc1cccc2c1C(=O)c1c(O)c3c(c(O)c1C2=O)C[C@@](O)(C(=O)CO)C[C@@H]3O[C@H]1C[C@H](N)[C@H](O)[C@H](C)O1 [DOX, doxorubicin, reference compound]	–	–	–	–	–	effect on cell morphology and viability (apoptosis, chromatin condensation, DNA fragmentation) [7]: elicited a similar morphological disruption and chromatin fragmentation as compound 8 did; percentage of methyl green dye replaced from its complex with DNA [8]: 41.62–45.52%
COc1ccc(/C=C/c2cc(OC)c(OC)c(OC)c2)cc1Br [Compound 4, 3-bromo-3′,4′,5′,4-tetramethoxy-trans-stilbene]	0.76	5.21	2.85	> 100	> 100	GI50 pancreas BXPC-3 [9]: 0.34 µg/mL (≈ 0.897 µM); effect on cell morphology and viability (apoptosis, chromatin condensation, DNA fragmentation) [7]: induced moderate apoptosis; GI50 lung-NSC NCI-H460 [12]: 0.36 µg/mL (≈ 0.949 µM); percentage of methyl green dye replaced from its complex with DNA [8]: 1.87–5.98%; affinity for DNA [8]: low affinity for DNA; GI50 neuroblast SK-N-SH [14]: 0.40 µg/mL (≈ 1.05 µM); GI50 prostate DU-145 [17]: 0.45 µg/mL (≈ 1.19 µM)
COc1cc(OC)c(OC)cc1/C=C/c1ccc(OC)c(OC)c1 [Compound 10, 2,3’,4,4’,5-pentamethoxy-trans-stilbene]	8.95	91.6	> 100	> 100	> 100	–
COc1cc(/C=C/c2cc(Br)cc(Br)c2)cc(OC)c1OC [Compound 6, 3,5-dibromo-3′,4′,5′-trimethoxy-trans-stilbene]	65.3	9.97	3.75	> 100	> 100	–
COc1ccc(/C=C/c2cc(OC)c(OC)c(OC)c2)cc1OC [Compound 8, 3,3′,4,4’,5-pentamethoxy-trans-stilbene]	0.82	3.83	5.04	> 100	> 100	effect on cell morphology and viability (apoptosis, chromatin condensation, DNA fragmentation) [7]: induced moderate apoptosis; percentage of methyl green dye replaced from its complex with DNA [8]: 1.87–5.98%; affinity for DNA [8]: low affinity for DNA
COc1cc(Br)c(/C=C/c2cc(OC)c(OC)c(OC)c2)cc1OC [Compound 5, 2-bromo-3′,4′,5′,4,5-pentamethoxy-trans-stilbene]	68.5	71.1	51.7	> 100	> 100	–
COc1cc(/C=C/c2cc(OC)c(OC)c(OC)c2)cc(Br)c1OC [Compound 2, 3-bromo-3′,4′,5′,4,5-pentamethoxy-trans-stilbene]	> 100	7.93	72.8	> 100	> 100	–
CC[n+]1c(-c2ccccc2)c2cc(N)ccc2c2ccc(N)cc21 [EtBr, Ethidium Bromide, reference compound]	–	–	–	–	–	percentage of methyl green dye replaced from its complex with DNA [8]: 42.12–47.35%
COc1cc(/C=C/c2cc(Br)c(OC)c(Br)c2)cc(OC)c1OC [Compound 3, 3,5-dibromo-3′,4′,5′,4-tetramethoxy-trans-stilbene]	> 100	20.4	76.4	> 100	> 100	–
Oc1ccccc1/C=C/c1cc[n+](Cc2ccccc2Br)cc1.[Br-] [IX, 1-(2-bromobenzyl)-4-[(E)-2-(2-hydroxyphenyl)ethenyl]pyridinium bromide]	–	–	–	–	–	activity against Staphylococcus aureus 209P [18]: promising activity
CSc1ccc(/C=C/c2ccccc2SC)cc1 [VI, 2,4′-dimethylthio-trans-stilbene]	–	–	–	–	–	IC50 [19]: 0.026 µM
COc1cc(/C=C/c2ccc(Br)cc2)cc(OC)c1OC [Compound 1, 4-bromo-3′,4′,5′-trimethoxy-trans-stilbene]	2.26	6.63	3.2	> 100	> 100	IC50 [20]: 6.36 µM; MIC toward Mucor indicus [21]: 25 µg/mL (≈ 71.6 µM)
COc1ccc(/C=C(\C#N)c2cc(OC)c(OC)c(OC)c2)cc1OC [Z isomer of compound XII, reference compound]	–	–	–	–	–	IC50 [20]: 0.03 µM
COc1ccc(/C=C/c2cc(OC)c(OC)c(OC)c2)cc1 [Compound 7, 3,4,5,4′-tetramethoxy-trans-stilbene]	0.65	0.83	2.79	> 100	> 100	effect on cell morphology and viability (apoptosis, chromatin condensation, DNA fragmentation) [7]: markedly reduced viable cell numbers and enhanced nuclear fragmentation; percentage of methyl green dye replaced from its complex with DNA [8]: 1.87–5.98%; affinity for DNA [8]: low affinity for DNA

Reference: article PMC12735739, “Bromo Analogues of Active 3,4,5,4′-Tetramethoxy-trans-stilbene (DMU-212)—A New Path of Research to Anticancer Agents” (Molecules, 2025)
